Experimental data: ChEMBL document CHEMBL5154834, “Anti-neuroinflammatory effects of novel 5,6-dihydrobenzo[h]quinazolin-2-amine derivatives in lipopolysaccharide-stimulated BV2 microglial cells” (Eur J Med Chem, 2022)

Columns and labels:
[1] = Cytotoxicity against mouse BV-2 cells assessed as survival rate at 2.5 ug/ml incubated for 24 hrs by MTT assay; format: toxicity, cell-based; settings: at 2.5 µg/mL, read-out: Activity
BV-2 [2] = assay: Anti-neuroinflammatory activity in mouse BV-2 cells assessed as inhibition of LPS-stimulated TNF-alpha production at 2.5 ug/ml measured after 24 hrs by ELISA; format: functional; design: scale not given: the % may be the effect or the level left; settings: dose 2.5 µg/ml
BV-2 [3] = assay: Anti-neuroinflammatory activity in mouse BV-2 cells assessed as inhibition of LPS-stimulated IL-6 production at 2.5 ug/ml measured after 24 hrs by ELISA; format: functional; design: scale not given: the % may be the effect or the level left; settings: dose 2.5 µg/ml
BV-2 [4] = assay: Anti-neuroinflammatory activity in mouse BV-2 cells assessed as reduction of LPS-stimulated IkappaBalpha phosphorylation level at 1.25 to 5 ug/ml and measured after 24 hrs by westernblot analysis; format: functional, cell-based; settings: dose 1.25-5 µg/ml, DDE = dose-dependent effect
BV-2 [5] = assay: Anti-neuroinflammatory activity in mouse BV-2 cells assessed as inhibition of LPS-induced NLRP3 expression level at 1.25 to 5 ug/ml and measured after 24 hrs by western blot analysis; format: functional, cell-based; settings: dose 1.25-5 µg/ml, DDE = dose-dependent effect
BV-2 [6] = assay: Anti-neuroinflammatory activity in mouse BV-2 cells assessed as inhibition of LPS-induced ASC expression level at 1.25 to 5 ug/ml and measured after 24 hrs by western blot analysis; format: functional, cell-based; settings: dose 1.25-5 µg/ml, DDE = dose-dependent effect
BV-2 [7] = assay: Anti-neuroinflammatory activity in mouse BV-2 cells assessed as inhibition of LPS-induced caspase-1 expression level at 1.25 to 5 ug/ml and measured after 24 hrs by western blot analysis; format: functional, cell-based; settings: dose 1.25-5 µg/ml, DDE = dose-dependent effect
BV-2 [8] = assay: Neuroprotective activity against LPS-induced mouse BV-2 cell death assessed as reversal of apoptosis at 2.5 uM and measured after 24 hrs by Annexin V-FITC/PI staining based flow cytometry method (reference value: 91.6%); format: functional
BV-2 [9] = assay: Neuroprotective activity against LPS-induced mouse BV-2 cell death assessed as late apoptotic cells at 2.5 uM and measured after 24 hrs by Annexin V-FITC/PI staining based flow cytometry method (reference value: 0%); format: functional
BV-2 [10] = assay: Neuroprotective activity against LPS-induced mouse BV-2 cell death assessed as reversal of apoptosis at 5 uM and measured after 24 hrs by Annexin V-FITC/PI staining based flow cytometry method (reference value: 91.6%); format: functional
BV-2 [11] = assay: Neuroprotective activity against LPS-induced mouse BV-2 cell death assessed as late apoptotic cells at 5 uM and measured after 24 hrs by Annexin V-FITC/PI staining based flow cytometry method (reference value: 0%); format: functional

SMILES	viability at 24 h, 2.5 ug/ml [1]	Activity (BV-2 [2])	Activity (BV-2 [3])	other results
COc1ccc2c(c1)C(=O)/C(=C/c1cccc(OC)n1)CC2	90.4%	40.6%	54%	
COc1ccc2c(c1)C(=O)/C(=C/c1ccc(OC)cc1C(F)(F)F)CC2	88.3%	40%	44.9%	
COc1ccc2c(c1)-c1nc(N)nc(-c3ccc(OC)nc3)c1CC2	87.5%	42.7%	43.7%	
COc1ccc2c(c1)C(=O)/C(=C/c1ccc(OC)c(C(F)(F)F)c1)CC2	94.4%	32.8%	44.4%	
COc1ccc2c(c1)C(=O)/C(=C/c1ccc(OC)nc1)CC2	93.1%	23.8%	45%	
COc1cc(/C=C2\CCc3ccc(Br)cc3C2=O)cc(OC)c1OC	93.5%	33.1%	35.9%	
COc1cccc(-c2nc(N)nc3c2CCc2ccc(F)cc2-3)n1	95.4%	50.3%	66.9%	
COc1cccc(/C=C2\CCc3ccc(F)cc3C2=O)c1	90.3%	34%	35.2%	
COc1cncc(-c2nc(N)nc3c2CCc2ccc(F)cc2-3)c1	97.4%	60.8%	80.2%	Activity (BV-2 [4]): Dde; Activity (BV-2 [5]): Dde; Activity (BV-2 [6]): Dde; Activity (BV-2 [7]): Dde; Activity (BV-2 [8]): 54.8%; Activity (BV-2 [9]): 30.7%; Activity (BV-2 [10]): 70.7%; Activity (BV-2 [11]): 13%
COc1ccc2c(c1)-c1nc(N)nc(-c3ccc(OC)c(C(F)(F)F)c3)c1CC2	90.3%	46.7%	44.2%	
S=C(S)N1CCCC1 [PYRROLIDINE DITHIOCARBAMATE]		55.9%	64%	
COc1ccc(-c2nc(N)nc3c2CCc2ccc(F)cc2-3)cc1C(F)(F)F	91%	42.4%	43%	
COc1cncc(/C=C2\CCc3ccc(OC)cc3C2=O)c1	92.3%	29.7%	43.7%	
COc1ccc2c(c1)-c1nc(N)nc(-c3cccc(OC)n3)c1CC2	94.8%	44.9%	44.1%	
COc1cncc(/C=C2\CCc3ccc(F)cc3C2=O)c1	94.4%	33.3%	46.4%	
COc1ccc(/C=C2\CCc3ccc(Br)cc3C2=O)cn1	89.5%	32.5%	45.5%	

SMILES	viability at 24 h, 2.5 ug/ml [1]	Activity (BV-2 [2])	Activity (BV-2 [3])	other results
COc1cccc(-c2nc(N)nc3c2CCc2ccc(Br)cc2-3)n1	88.9%	44.8%	55.8%	
COc1cncc(-c2nc(N)nc3c2CCc2ccc(Br)cc2-3)c1	93.2%	49.4%	43.3%	
COc1cc(-c2nc(N)nc3c2CCc2ccc(Br)cc2-3)cc(OC)c1OC	93.1%	39.9%	43.7%	
COc1cccc(/C=C2\CCc3ccc(F)cc3C2=O)n1	85.8%	41.7%	61.1%	
COc1cc(/C=C2\CCc3ccc(F)cc3C2=O)cc(OC)c1	87.8%	40.8%	46.1%	
COc1ccc2c(c1)-c1nc(N)nc(-c3ccc(OC)cc3C(F)(F)F)c1CC2	89.9%	38.2%	54.3%	
COc1ccc(/C=C2\CCc3ccc(F)cc3C2=O)cc1C(F)(F)F	94.7%	38.6%	42.3%	
COc1cncc(-c2nc(N)nc3c2CCc2ccc(OC)cc2-3)c1	94.7%	47.3%	53.8%	
COc1cccc(-c2nc(N)nc3c2CCc2ccc(F)cc2-3)c1	95%	53.8%	66.6%	
COc1ccc(-c2nc(N)nc3c2CCc2ccc(Br)cc2-3)cn1	95.4%	43.8%	40.6%	
COc1ccc(/C=C2\CCc3ccc(F)cc3C2=O)cn1	92.7%	34.3%	47%	
COc1ccc(-c2nc(N)nc3c2CCc2ccc(F)cc2-3)cn1	89.6%	43.3%	43.9%	
COc1cccc(/C=C2\CCc3ccc(Br)cc3C2=O)n1	94.7%	31.9%	44.9%	
COc1cc(OC)cc(-c2nc(N)nc3c2CCc2ccc(F)cc2-3)c1	95.4%	45.3%	51.7%	
COc1cncc(/C=C2\CCc3ccc(Br)cc3C2=O)c1	94.9%	35.9%	47%	
